# Assays:
# Experiment in all cases: relative viability (nuclei count vs DMSO), 5 days (fraction); higher = more cells survive
# ALW-II-49-7 + Tozasertib = compound: Cc1ccc(C(=O)Nc2cccc(C(F)(F)F)c2)cc1Nc1cncc(C(N)=O)c1 [ALW-II-49-7] + Cc1cc(Nc2cc(N3CCN(C)CC3)nc(Sc3ccc(NC(=O)C4CC4)cc3)n2)n[nH]1 [Tozasertib] (partner 0.1 µM)
# Summary of the method: (§1)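 Lung cancer cell lines were seeded in 1536-well plates and dosed by pin tool the next day, with either a single drug or a fixed anchor-drug dose combined with five library-drug doses (not always all listed) spaced in √10 steps. Five days later, one step fixed the cells and stained their nuclei (final 0.05% Triton X-100, 1% formaldehyde, 1 ug/ml Hoechst), and nuclei were counted on 4× images. Relative viability is the nuclei count in treated wells divided by the count in vehicle wells, and each value is the median of duplicate plates.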
# Dasatinib + Palbociclib = compound: Cc1nc(Nc2ncc(C(=O)Nc3c(C)cccc3Cl)s2)cc(N2CCN(CCO)CC2)n1 [Dasatinib] + CC(=O)c1c(C)c2cnc(Nc3ccc(N4CCNCC4)cn3)nc2n(C2CCCC2)c1=O [Palbociclib] (partner 0.5 µM)
# Summary of the method: as §1
# XMD13-2 + Decitabine = compound: C1CC1C(=O)NC2=NNC3=C2C=CC(=C3)C4=CC(=CC=C4)C(=O)NC5CC5 [XMD13-2] + Nc1ncn([C@H]2C[C@H](O)[C@@H](CO)O2)c(=O)n1 [Decitabine] (partner 2 µM)
# Summary of the method: as §1
# XMD13-2 + Pemetrexed = compound: C1CC1C(=O)NC2=NNC3=C2C=CC(=C3)C4=CC(=CC=C4)C(=O)NC5CC5 [XMD13-2] + Nc1nc2[nH]cc(CCc3ccc(C(=O)N[C@@H](CCC(=O)O)C(=O)O)cc3)c2c(=O)[nH]1 [Pemetrexed] (partner 0.2 µM)
# Summary of the method: as §1
Cell Line,relative viability (ALW-II-49-7 + Tozasertib; first compound 0.08 µM),relative viability (ALW-II-49-7 + Tozasertib; first compound 0.253 µM),relative viability (ALW-II-49-7 + Tozasertib; first compound 0.8 µM),relative viability (ALW-II-49-7 + Tozasertib; first compound 2.53 µM),relative viability (ALW-II-49-7 + Tozasertib; first compound 8 µM),relative viability (Dasatinib + Palbociclib; first compound 0.005 µM),relative viability (Dasatinib + Palbociclib; first compound 0.01581 µM),relative viability (Dasatinib + Palbociclib; first compound 0.05 µM),relative viability (Dasatinib + Palbociclib; first compound 0.1581 µM),relative viability (Dasatinib + Palbociclib; first compound 0.5 µM),relative viability (XMD13-2 + Decitabine; first compound 0.05 µM),relative viability (XMD13-2 + Decitabine; first compound 0.1581 µM),relative viability (XMD13-2 + Decitabine; first compound 0.5 µM),relative viability (XMD13-2 + Decitabine; first compound 5 µM),relative viability (XMD13-2 + Pemetrexed; first compound 0.05 µM),relative viability (XMD13-2 + Pemetrexed; first compound 0.1581 µM),relative viability (XMD13-2 + Pemetrexed; first compound 0.5 µM),relative viability (XMD13-2 + Pemetrexed; first compound 1.581 µM),relative viability (XMD13-2 + Pemetrexed; first compound 5 µM),relative viability (XMD13-2 + Decitabine; first compound 1.581 µM)
EMC-BAC-2,0.267,0.273,0.276,0.203,0.199,0.507,0.424,0.417,0.319,0.243,1.09,0.967,0.997,0.878,0.42,0.451,0.431,0.457,0.494,
EPLC-272H,0.127,,0.257,0.298,0.27,0.31,0.327,0.314,0.296,0.143,0.363,0.391,0.485,0.314,0.345,0.31,0.247,0.254,0.168,0.339
H3255,0.724,0.613,0.675,0.625,0.42,0.312,0.333,0.329,0.317,0.274,0.749,0.72,0.532,0.603,0.618,0.546,0.579,0.611,0.625,
HARA,0.0918,0.121,0.114,0.0912,0.0839,0.303,0.243,0.155,0.177,0.114,0.654,0.558,0.584,0.492,0.224,0.273,0.269,0.208,0.323,0.613
HCC-15,0.325,0.367,0.272,0.328,0.333,0.714,0.669,0.673,0.578,0.565,0.768,0.652,0.725,0.627,0.237,0.204,0.218,0.224,0.214,0.598
HCC-44,,0.908,0.874,0.109,0.664,1.07,0.878,1.06,1.14,1.29,0.981,0.835,1.01,0.963,0.573,0.536,0.67,0.727,0.631,0.992
HCC-78,0.482,0.396,,0.43,0.505,0.459,0.429,0.443,0.382,0.239,0.691,0.737,0.664,0.61,0.921,0.918,0.883,0.962,0.964,0.613
HCC-366,0.168,0.17,0.0962,0.0839,0.0614,0.412,0.185,0.173,0.114,0.0885,0.332,0.34,0.33,0.378,0.147,0.175,0.164,0.172,0.187,0.341

# From the supplement of paper PMC10307832
